According to ChEMBL document CHEMBL5247624, “N-sulfonylpiperidinedispiro-1,2,4,5-tetraoxanes exhibit potent in vitro antiplasmodial activity and in vivo efficacy in mice infected with P. berghei ANKA” (Eur J Med Chem, 2022):
Active and inactive are the calls of the source. The rule behind the calls is not given here.

Columns and labels:
Plasmodium falciparum [1] = assay: Antiplasmodial activity against erythrocytic stage of chloroquine-sensitive Plasmodium falciparum 3D7 assessed as inhibition of parasite growth incubated for 3 days by HRP2-ELISA assay; format: functional, organism-based; details: 3D7, 72 h
Huh-7 = assay: Cytotoxicity against human Huh-7 cells assessed as reduction in cell viability incubated for 72 hrs by MTT assay; format: functional
Plasmodium falciparum [2] = assay: Antiplasmodial activity against Plasmodium falciparum W2 infected in human RBC assessed as inhibition of parasite growth incubated for 48 hrs by flow cytometry; format: functional, organism-based; details: W2, Erythrocyte
Plasmodium berghei [3] = assay: Antiplasmodial activity against Plasmodium berghei infected in Swiss Webster mouse assessed as reduction of parasitaemia by measuring partial cure at 2 mg/kg/day,po administrated for 4 days; format: functional; set-up: scale not given: the % may be the effect or the level left; details: time 4 day
Plasmodium falciparum [4] = assay: Antiplasmodial activity against erythrocytic stage of chloroquine-sensitive Plasmodium falciparum 3D7 infected in human RBC assessed as increase in intracellular ROS level by measuring green fluorescence at 10 uM incubated for 3 hrs by H2DCFDA probe based fluorescence microscopic analysis; format: functional, organism-based; details: Erythrocyte
Plasmodium berghei [5] = assay: Antiplasmodial activity against Plasmodium berghei ANKA infected in Swiss albino mouse assessed as parasite recrudescence by measuring parasitemia at 60 mg/kg/day,ip qd administrated for 4 subsequent days by Giemsa staining assay; format: functional
Plasmodium berghei [6] = assay: Antiplasmodial activity against Plasmodium berghei ANKA infected in Swiss albino mouse assessed as partial cure by measuring parasitemia at 60 mg/kg/day,ip qd measured after 48 hrs post administration by Giemsa staining assay; format: functional, organism-based
Plasmodium falciparum [7] = assay: Antiplasmodial activity against erythrocytic stage of chloroquine-sensitive Plasmodium falciparum 3D7 infected in human RBC assessed as increase in intracellular ROS level at 10 uM incubated for 3 hrs by H2DCFDA probe based flow cytometry; format: functional, organism-based; details: Erythrocyte
Plasmodium berghei [8] = assay: Antiplasmodial activity against Plasmodium berghei ANKA infected in Swiss albino mouse assessed as increase in parasite clearance rate at 60 mg/kg/day,ip qd administrated for 5 subsequent days by Giemsa staining assay; format: functional, organism-based
Plasmodium berghei [9] = assay: Antiplasmodial activity against Plasmodium berghei ANKA infected in Swiss albino mouse assessed as reduction of parasitaemia at 60 mg/kg/day,ip qd measured after 72 hrs post administration by Giemsa staining assay relative to control; format: functional; set-up: scale not given: the % may be the effect or the level left
Plasmodium berghei [10] = assay: Antiplasmodial activity against Plasmodium berghei ANKA infected in Swiss albino mouse assessed as reduction of parasitaemia at 60 mg/kg/day,ip qd measured at 24 hrs post administration by Giemsa staining assay relative to control; format: functional; set-up: scale not given: the % may be the effect or the level left
Plasmodium berghei [11] = assay: Antiplasmodial activity against Plasmodium berghei ANKA infected in Swiss albino mouse assessed as reduction of parasitaemia at 60 mg/kg/day,ip qd measured after 72 hrs post administration by Giemsa staining assay; format: functional, organism-based
Plasmodium berghei [12] = assay: Antiplasmodial activity against Plasmodium berghei ANKA infected in Swiss albino mouse assessed as increase in animal survival rate at 60 mg/kg/day,ip qd administrated for 5 subsequent days; format: functional, organism-based
Plasmodium berghei [13] = assay: Antiplasmodial activity against Plasmodium berghei ANKA infected in Swiss albino mouse assessed as reduction of parasitaemia at 60 mg/kg/day,ip qd administrated for 5 subsequent days by Giemsa staining assay relative to control; format: functional; set-up: scale not given: the % may be the effect or the level left

| SMILES | IC50 (Plasmodium falciparum [1]) [nM] | CC50 (Huh-7) [µg/mL] | other results |
| --- | --- | --- | --- |
| Cc1ccc(S(=O)(=O)N2CCC3(CC2)OOC2(CCCCC2)OO3)cc1 | 40.2 | > 100 | – |
| CC(C)(N)CNC(=O)O[C@@H]1CCC[C@]2(C1)OOC1(O2)C2CC3CC(C2)CC1C3 (stereo partly drawn) | – | – | EC50 (Plasmodium falciparum [2]): 1.8 nM; Activity (Plasmodium berghei [3]): 100% |
| C[C@H]1[C@H](OC(=O)CCC(=O)O)O[C@@H]2O[C@@]3(C)CC[C@H]4[C@H](C)CC[C@@H]1[C@@]24OO3 [ARTESUNATE] | 3.3 | > 100 | – |
| C1CCCC2(CC1)OOC1(CCCCCC1)OO2 | 39.4 | > 100 | – |
| O=S(=O)(Cc1ccccc1)N1CCC2(CC1)OOC1(CCCC1)OO2 | 20.6 | > 100 | – |
| O=S(=O)(c1ccc(F)cc1)N1CCC2(CC1)OOC1(CCCCC1)OO2 | 77.4 | > 100 | – |
| CCS(=O)(=O)N1CCC2(CC1)OOC1(CCCC1)OO2 | 11.8 | > 100 | – |
| O=S(=O)(CCCCl)N1CCC2(CC1)OOC1(CCCCCC1)OO2 | 13 | > 100 | – |
| CS(=O)(=O)N1CCC2(CC1)OOC1(CCCC1)OO2 | 41.9 | > 100 | – |
| CCCS(=O)(=O)N1CCC2(CC1)OOC(C)(c1ccc(Cl)cc1)OO2 | 8360 | > 100 | – |
| CCCS(=O)(=O)N1CCC2(CC1)OOC(C)(CC)OO2 | 23.3 | > 100 | – |
| CS(=O)(=O)N1CCC2(CC1)OOC1(CCCCC1)OO2 | 16.3 | > 100 | – |
| COc1ccc(S(=O)(=O)N2CCC3(CC2)OOC2(CCCC2)OO3)cc1 | 25.3 | > 100 | – |
| CS(=O)(=O)N1CCC2(CC1)OOC1(CCCCCC1)OO2 | 9.67 | > 100 | Activity (Plasmodium falciparum [4]): Active; Activity (Plasmodium berghei [5]): >0.1%; Activity (Plasmodium berghei [6]): inactive; Activity (Plasmodium falciparum [7]): Active |
| Cc1ccc(S(=O)(=O)N2CCC3(CC2)OOC2(CCCCCC2)OO3)cc1 | 55.3 | > 100 | – |
| COc1ccc(S(=O)(=O)N2CCC3(CC2)OOC2(CCCCCC2)OO3)cc1 | 46.6 | > 100 | – |
| CCCC1(C)OOC2(CCN(S(=O)(=O)CCC)CC2)OO1 | 10.9 | > 100 | Activity (Plasmodium falciparum [4]): Active; Activity (Plasmodium berghei [5]): >0.1%; Activity (Plasmodium berghei [6]): inactive; Activity (Plasmodium falciparum [7]): Active |
| O=S(=O)(CCCCl)N1CCC2(CC1)OOC1(CCCC1)OO2 | 8.43 | > 100 | Activity (Plasmodium falciparum [4]): Active; Activity (Plasmodium berghei [8]): Active; Activity (Plasmodium berghei [9]): 100%; Activity (Plasmodium berghei [5]): inactive; Activity (Plasmodium berghei [10]): <0.1%; Activity (Plasmodium berghei [11]): Active; Activity (Plasmodium berghei [12]): Active; Activity (Plasmodium berghei [6]): Active; Activity (Plasmodium falciparum [7]): Active |
| CCS(=O)(=O)N1CCC2(CC1)OOC1(CCCCC1)OO2 | 10.5 | > 100 | Activity (Plasmodium falciparum [4]): Active; Activity (Plasmodium berghei [5]): >0.1%; Activity (Plasmodium berghei [13]): 100%; Activity (Plasmodium berghei [11]): Active; Activity (Plasmodium berghei [6]): inactive; Activity (Plasmodium falciparum [7]): Active |
| O=S(=O)(CCCCl)N1CCC2(CC1)OOC1(CCCCC1)OO2 | 40.6 | > 100 | – |
| CCCCS(=O)(=O)N1CCC2(CC1)OOC1(CCCCC1)OO2 | 57.2 | > 100 | – |
| CCCS(=O)(=O)N1CCC2(CC1)OOC(C)(c1ccccc1)OO2 | 129 | > 100 | – |

| SMILES | IC50 (Plasmodium falciparum [1]) [nM] | CC50 (Huh-7) [µg/mL] | other results |
| --- | --- | --- | --- |
| O=S(=O)(c1ccc(F)cc1)N1CCC2(CC1)OOC1(CCCC1)OO2 | 67 | > 100 | – |
| O=S(=O)(c1ccc(Br)cc1F)N1CCC2(CC1)OOC1(CCCC1)OO2 | 44.2 | > 100 | – |
| O=S(=O)(Cc1ccccc1)N1CCC2(CC1)OOC1(CCCCCC1)OO2 | 64.7 | > 100 | – |
| CS(=O)(=O)N1CCC2(CC1)OOC1(CCN(S(C)(=O)=O)CC1)OO2 | 39.6 | > 100 | – |
| C[C@H]1[C@@H](O)O[C@@H]2O[C@@]3(C)CC[C@H]4[C@H](C)CC[C@@H]1[C@@]24OO3 [ARTENIMOL] | 0.7 | > 100 | – |
| CCCS(=O)(=O)N1CCC2(CC1)OOC1(CCCCC1)OO2 | 12.9 | > 100 | Activity (Plasmodium falciparum [4]): Active; Activity (Plasmodium berghei [5]): >0.1%; Activity (Plasmodium berghei [6]): inactive; Activity (Plasmodium falciparum [7]): Active |
| O=S(=O)(c1ccc(Br)cc1F)N1CCC2(CC1)OOC1(CCCCCC1)OO2 | 10.4 | > 100 | Activity (Plasmodium falciparum [4]): Active; Activity (Plasmodium berghei [5]): >0.1%; Activity (Plasmodium berghei [6]): inactive; Activity (Plasmodium falciparum [7]): Active |
| C[C@@H]1CC[C@H]2[C@@H](C)C(=O)O[C@@H]3O[C@@]4(C)CC[C@@H]1[C@]32OO4 [ARTEMISININ] | 4.74 | – | – |
| O=S(=O)(c1ccc(F)cc1)N1CCC2(CC1)OOC1(CCCCCC1)OO2 | 37.4 | > 100 | – |
| CCCS(=O)(=O)N1CCC2(CC1)OOC1(CCCCCC1)OO2 | 4.7 | > 100 | Activity (Plasmodium falciparum [4]): Active; Activity (Plasmodium berghei [5]): >0.1%; Activity (Plasmodium berghei [6]): inactive; Activity (Plasmodium falciparum [7]): Active |
| CCCS(=O)(=O)N1CCC2(CC1)OOC(C)(C)OO2 | 101 | > 100 | – |
| CCCCS(=O)(=O)N1CCC2(CC1)OOC1(CCCCCC1)OO2 | 13.8 | > 100 | – |
| O=S(=O)(c1ccc(Br)cc1F)N1CCC2(CC1)OOC1(CCCCC1)OO2 | 322 | > 100 | – |
| CCCS(=O)(=O)N1CCC2(CC1)OOC(C)(C(C)C)OO2 | 21.4 | > 100 | – |
| O=S(=O)(Cc1ccccc1)N1CCC2(CC1)OOC1(CCCCC1)OO2 | 49.4 | > 100 | – |
| CCCCS(=O)(=O)N1CCC2(CC1)OOC1(CCCC1)OO2 | 41.9 | > 100 | – |
| CCN(CC)CCCC(C)Nc1ccnc2cc(Cl)ccc12 (stereo not drawn) [CHLOROQUINE] | 4.36 | > 100 | Activity (Plasmodium berghei [10]): 100% |
| CCS(=O)(=O)N1CCC2(CC1)OOC1(CCCCCC1)OO2 | 62.5 | > 100 | – |
| CCCS(=O)(=O)N1CCC2(CC1)OOC(C)(C1CC1)OO2 | 60.2 | > 100 | – |
| COc1ccc(S(=O)(=O)N2CCC3(CC2)OOC2(CCCCC2)OO3)cc1 | 32.2 | > 100 | – |
| CCCS(=O)(=O)N1CCC2(CC1)OOC1(CCCC1)OO2 | 9450 | > 100 | – |
| Cc1ccc(S(=O)(=O)N2CCC3(CC2)OOC2(CCCC2)OO3)cc1 | 24.2 | > 100 | – |
